One experiment has as its system hepatic functions. The experiment is described as follows: Administration test of α-glucosyl-hesperidin on hamsters (cholesterol-supplemented feed), serum GOT and GPT. Particulars: for Serum GOT / Serum GPT: 0.25 mmole/kg/day by stomach sonde, 5 weeks, last 3 weeks feed with 1% cholesterol, average ± SD; for Serum GOT: distilled water control 171 ± 46, before 46 ± 8; for Serum GPT: distilled water control 418 ± 106, before 81 ± 18; for serum levels of GOT and GPT compared with the distilled water group (control 1): 0.25 mmole/kg/day. It counts as in vivo, golden hamsters. As for the experimental part:
The animal experiment using hamsters was performed to investigate the influences of the intake of α-glucosyl-hesperidin on hepatic functions.
A group of five golden hamsters of five weeks old was fed on liberal amount of “NMF Lab Animal Diet Powder” (produced by Oriental Yeast Co., Ltd.) with the administration of “αG-HESPERIDIN PS®” (a powdery α-glucosyl-hesperidin containing 82.8% of α-glucosyl-hesperidin, commercialized by Hayashibara Shoji, Inc.) dissolved in distilled water. α-Glucosyl-hesperidin was administered to the hamsters through a stomach sonde at a dose of 0.25 mmole (193 mg)/kg/body weight every day. After two-week administrations of α-glucosyl-hesperidin, the hamsters were fed for additional three weeks in the same way as described above except that their feed was supplemented with 1% by weight of cholesterol. At four hours after the final administrations, the hamsters were anesthetized and under went laparotomy, and their large-venous blood samples were taken. After the separation of the hamsters' serums by a conventional method, the levels of GOT and GPT were measured. As the control 1, another group was fed and its blood samples were taken in the same way except that distilled water instead of α-glucosyl-hesperidin was administered to the hamsters. As the control 2, a third group was fed and their blood samples were taken in the same way except that hesperidin (a regent grade specimen, commercialized by Wako Pure Chemical Industries, Ltd.) instead of α-glucosyl-hesperidin suspended in distilled water was administered to the hamsters at a dose of 0.25 mmole (153 mg)/kg/body weight. The other group was fed on liberal amount of “NMF Lab Animal Diet Powder” with no administration of the test articles and their blood samples were taken in the same way as describe above, and the serum levels of GOT and GPT were measured to obtain the data before the administrations.

The conditions of experiment [1]: mammals including humans with an elevated TG level; Yamada et al. 2003, Miwa et al. 2004; cited from earlier work.

The structures appear in SMILES notation.

Take `COc1ccc(C2CC(=O)c3c(O)cc(O[C@@H]4OC(CO[C@@H]5OC(C)[C@H](O)C(O)C5O)[C@@H](COC[C@H]5OC(CO)[C@@H](O)C(O)C5O)C(O)C4O)cc3O2)cc1O` (stereo partly drawn) [α-Glucosyl-hesperidin, α-glucosyl-hesperidin]: in the experiment on hepatic functions, the “Serum GOT” value was found to be 66 ± 44 IU/L and the “Serum GPT” value was 226 ± 74 IU/L. Further, the “serum levels of GOT and GPT compared with the distilled water group (control 1)” value in the experiment on hepatic functions (hamsters) is “kept lower”. Further, in the experiment on hepatic functions (hamsters, equal molar dose 0.25 mmole/kg/day), the “effect for keeping hepatic-function indexes at a lower level, compared with hesperidin” value is recorded as “greater effect than that of hesperidin”. In experiment [1], the “effect on blood triglyceride (TG) level” value is recorded as “marked effect of reducing blood triglyceride”.

`COc1ccc([C@@H]2CC(=O)c3c(O)cc(O[C@@H]4O[C@H](CO[C@@H]5O[C@@H](C)[C@H](O)[C@@H](O)[C@H]5O)[C@@H](O)[C@H](O)[C@H]4O)cc3O2)cc1O` [Hesperidin, hesperidin, reference compound]: in the experiment with hepatic functions, the “Serum GOT” value is on record as 101 ± 30 IU/L and the “Serum GPT” value is given as 298 ± 76 IU/L. In the experiment with hepatic functions (hamsters), the “serum levels of GOT and GPT compared with the distilled water group (control 1)” value is recorded as “kept lower”.

The values are drawn from US20080221045A1, “Hepatic Function-Improving Agent” (Kabushiki Kaisha Hayashibara Seibutsu Kagaku Kenkyujo, priority 2004, published 2008).
